Assay results: PMC5613698 (Biochemistry and Biophysics Reports, 2016)
Structures can show the parent of a compound that is named as a salt.

Test system: trypsin from L. alexandri pyloric cecum (Pacamã trypsin)
Test: p-nitroaniline release at […] nm, Lineweaver-Burk
Type: biochemical, Lophiosilurus alexandri
Conditions: optimum pH (9.0) and temperature (50 °C), 90 min, BAPNA 0-6.0 mM

SMILES: N=C(N)NCCCC(NC(=O)c1ccccc1)C(=O)Nc1ccc([N+](=O)[O-])cc1 (racemic) [BAPNA, Nα-Benzoyl-D,L-arginine 4-nitroanilide hydrochloride]
- Km: 517 µM
